Assay results reported in patent publication US10670605B2, “Cysteine reactive probes and uses thereof” (The Scripps Research Institute, priority 2015, dated 2020).

How the values were obtained:
Assay in all cases: Competitive isoTOP-ABPP, cell lysates
Type in all cases: binding
MLTK C22 (Q9NYL2) = MLTK C22 (Q9NYL2) (Homo sapiens, UniProt Q9NYL2); settings: for R value (DMSO/fragment) / isoTOP-ABPP ratio Q9NYL2_C22: 500 μM; for R value (DMSO/fragment): in vitro, MDA-MB-231; for isoTOP-ABPP ratio (reactivity profile), Q9NYL2_C22: 500 μm in-vitro ramos_231; for isoTOP-ABPP ratio Q9NYL2_C22: invitro, 231
LRBA C1704 (P50851) = LRBA C1704 (P50851) (Homo sapiens, UniProt P50851); settings: for R value (DMSO/fragment) / isoTOP-ABPP ratio, P50851_C1704: 500 μM, invitro
NR3C1 C302 (P04150) = molecular target: T1, NR3C1 C302 (P04150) (Homo sapiens, UniProt P04150); settings: for R value (DMSO/fragment): in vitro, MDA-MB-231; for isoTOP-ABPP reactivity profile ratio, P04150_C302: 500 μm
T1 sequence (P04150 1-777): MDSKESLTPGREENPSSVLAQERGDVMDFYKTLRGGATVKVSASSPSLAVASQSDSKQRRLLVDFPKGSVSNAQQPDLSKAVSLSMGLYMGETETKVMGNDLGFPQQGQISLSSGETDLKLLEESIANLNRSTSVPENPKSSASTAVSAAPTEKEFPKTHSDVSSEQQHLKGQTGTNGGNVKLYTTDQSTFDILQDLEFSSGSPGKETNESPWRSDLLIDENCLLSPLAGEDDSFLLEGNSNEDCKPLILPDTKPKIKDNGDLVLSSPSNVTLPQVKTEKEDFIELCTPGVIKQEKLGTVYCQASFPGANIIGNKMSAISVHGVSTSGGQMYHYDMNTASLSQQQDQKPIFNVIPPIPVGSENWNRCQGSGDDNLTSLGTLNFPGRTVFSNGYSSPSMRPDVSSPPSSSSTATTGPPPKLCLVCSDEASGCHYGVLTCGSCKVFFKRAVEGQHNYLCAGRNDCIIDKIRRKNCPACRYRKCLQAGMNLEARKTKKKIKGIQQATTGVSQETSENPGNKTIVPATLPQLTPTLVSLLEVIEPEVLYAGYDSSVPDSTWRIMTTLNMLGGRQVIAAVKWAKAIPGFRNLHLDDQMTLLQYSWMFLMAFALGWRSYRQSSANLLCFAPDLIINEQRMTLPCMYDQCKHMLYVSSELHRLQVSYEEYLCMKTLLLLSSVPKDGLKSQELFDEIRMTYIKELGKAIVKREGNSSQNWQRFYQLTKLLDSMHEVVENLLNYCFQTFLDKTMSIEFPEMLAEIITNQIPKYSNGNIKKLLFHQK

IREB2 C137 (P48200) = molecular target: T2, IREB2 C137 (P48200) (Homo sapiens, UniProt P48200)
T2 sequence (P48200 1-963): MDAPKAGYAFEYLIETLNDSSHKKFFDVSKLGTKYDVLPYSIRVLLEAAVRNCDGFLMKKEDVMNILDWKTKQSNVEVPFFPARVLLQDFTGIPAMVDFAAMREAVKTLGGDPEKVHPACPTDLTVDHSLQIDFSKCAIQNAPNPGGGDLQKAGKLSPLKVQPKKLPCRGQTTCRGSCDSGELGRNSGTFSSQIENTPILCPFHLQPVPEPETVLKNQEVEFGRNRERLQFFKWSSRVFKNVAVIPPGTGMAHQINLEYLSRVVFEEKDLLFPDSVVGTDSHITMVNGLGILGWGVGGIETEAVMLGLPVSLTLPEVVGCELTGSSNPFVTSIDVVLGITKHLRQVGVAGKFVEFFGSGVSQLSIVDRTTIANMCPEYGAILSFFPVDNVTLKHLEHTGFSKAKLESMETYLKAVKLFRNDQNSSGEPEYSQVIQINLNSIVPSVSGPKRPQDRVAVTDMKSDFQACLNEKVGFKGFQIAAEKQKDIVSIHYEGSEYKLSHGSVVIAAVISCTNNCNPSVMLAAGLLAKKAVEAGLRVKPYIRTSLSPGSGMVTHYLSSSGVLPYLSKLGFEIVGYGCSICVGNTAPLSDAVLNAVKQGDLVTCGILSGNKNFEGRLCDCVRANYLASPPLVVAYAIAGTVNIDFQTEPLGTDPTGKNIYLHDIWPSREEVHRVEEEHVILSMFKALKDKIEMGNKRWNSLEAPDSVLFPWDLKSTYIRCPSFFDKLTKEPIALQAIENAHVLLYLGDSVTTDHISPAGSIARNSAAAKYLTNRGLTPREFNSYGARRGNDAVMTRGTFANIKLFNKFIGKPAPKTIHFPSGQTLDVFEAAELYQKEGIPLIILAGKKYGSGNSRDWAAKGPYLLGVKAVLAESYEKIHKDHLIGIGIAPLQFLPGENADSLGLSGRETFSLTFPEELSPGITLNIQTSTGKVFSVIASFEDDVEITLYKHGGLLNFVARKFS

Chain of LRBA C1704 (P50851) (P50851 whole entry, the tested form may be a part): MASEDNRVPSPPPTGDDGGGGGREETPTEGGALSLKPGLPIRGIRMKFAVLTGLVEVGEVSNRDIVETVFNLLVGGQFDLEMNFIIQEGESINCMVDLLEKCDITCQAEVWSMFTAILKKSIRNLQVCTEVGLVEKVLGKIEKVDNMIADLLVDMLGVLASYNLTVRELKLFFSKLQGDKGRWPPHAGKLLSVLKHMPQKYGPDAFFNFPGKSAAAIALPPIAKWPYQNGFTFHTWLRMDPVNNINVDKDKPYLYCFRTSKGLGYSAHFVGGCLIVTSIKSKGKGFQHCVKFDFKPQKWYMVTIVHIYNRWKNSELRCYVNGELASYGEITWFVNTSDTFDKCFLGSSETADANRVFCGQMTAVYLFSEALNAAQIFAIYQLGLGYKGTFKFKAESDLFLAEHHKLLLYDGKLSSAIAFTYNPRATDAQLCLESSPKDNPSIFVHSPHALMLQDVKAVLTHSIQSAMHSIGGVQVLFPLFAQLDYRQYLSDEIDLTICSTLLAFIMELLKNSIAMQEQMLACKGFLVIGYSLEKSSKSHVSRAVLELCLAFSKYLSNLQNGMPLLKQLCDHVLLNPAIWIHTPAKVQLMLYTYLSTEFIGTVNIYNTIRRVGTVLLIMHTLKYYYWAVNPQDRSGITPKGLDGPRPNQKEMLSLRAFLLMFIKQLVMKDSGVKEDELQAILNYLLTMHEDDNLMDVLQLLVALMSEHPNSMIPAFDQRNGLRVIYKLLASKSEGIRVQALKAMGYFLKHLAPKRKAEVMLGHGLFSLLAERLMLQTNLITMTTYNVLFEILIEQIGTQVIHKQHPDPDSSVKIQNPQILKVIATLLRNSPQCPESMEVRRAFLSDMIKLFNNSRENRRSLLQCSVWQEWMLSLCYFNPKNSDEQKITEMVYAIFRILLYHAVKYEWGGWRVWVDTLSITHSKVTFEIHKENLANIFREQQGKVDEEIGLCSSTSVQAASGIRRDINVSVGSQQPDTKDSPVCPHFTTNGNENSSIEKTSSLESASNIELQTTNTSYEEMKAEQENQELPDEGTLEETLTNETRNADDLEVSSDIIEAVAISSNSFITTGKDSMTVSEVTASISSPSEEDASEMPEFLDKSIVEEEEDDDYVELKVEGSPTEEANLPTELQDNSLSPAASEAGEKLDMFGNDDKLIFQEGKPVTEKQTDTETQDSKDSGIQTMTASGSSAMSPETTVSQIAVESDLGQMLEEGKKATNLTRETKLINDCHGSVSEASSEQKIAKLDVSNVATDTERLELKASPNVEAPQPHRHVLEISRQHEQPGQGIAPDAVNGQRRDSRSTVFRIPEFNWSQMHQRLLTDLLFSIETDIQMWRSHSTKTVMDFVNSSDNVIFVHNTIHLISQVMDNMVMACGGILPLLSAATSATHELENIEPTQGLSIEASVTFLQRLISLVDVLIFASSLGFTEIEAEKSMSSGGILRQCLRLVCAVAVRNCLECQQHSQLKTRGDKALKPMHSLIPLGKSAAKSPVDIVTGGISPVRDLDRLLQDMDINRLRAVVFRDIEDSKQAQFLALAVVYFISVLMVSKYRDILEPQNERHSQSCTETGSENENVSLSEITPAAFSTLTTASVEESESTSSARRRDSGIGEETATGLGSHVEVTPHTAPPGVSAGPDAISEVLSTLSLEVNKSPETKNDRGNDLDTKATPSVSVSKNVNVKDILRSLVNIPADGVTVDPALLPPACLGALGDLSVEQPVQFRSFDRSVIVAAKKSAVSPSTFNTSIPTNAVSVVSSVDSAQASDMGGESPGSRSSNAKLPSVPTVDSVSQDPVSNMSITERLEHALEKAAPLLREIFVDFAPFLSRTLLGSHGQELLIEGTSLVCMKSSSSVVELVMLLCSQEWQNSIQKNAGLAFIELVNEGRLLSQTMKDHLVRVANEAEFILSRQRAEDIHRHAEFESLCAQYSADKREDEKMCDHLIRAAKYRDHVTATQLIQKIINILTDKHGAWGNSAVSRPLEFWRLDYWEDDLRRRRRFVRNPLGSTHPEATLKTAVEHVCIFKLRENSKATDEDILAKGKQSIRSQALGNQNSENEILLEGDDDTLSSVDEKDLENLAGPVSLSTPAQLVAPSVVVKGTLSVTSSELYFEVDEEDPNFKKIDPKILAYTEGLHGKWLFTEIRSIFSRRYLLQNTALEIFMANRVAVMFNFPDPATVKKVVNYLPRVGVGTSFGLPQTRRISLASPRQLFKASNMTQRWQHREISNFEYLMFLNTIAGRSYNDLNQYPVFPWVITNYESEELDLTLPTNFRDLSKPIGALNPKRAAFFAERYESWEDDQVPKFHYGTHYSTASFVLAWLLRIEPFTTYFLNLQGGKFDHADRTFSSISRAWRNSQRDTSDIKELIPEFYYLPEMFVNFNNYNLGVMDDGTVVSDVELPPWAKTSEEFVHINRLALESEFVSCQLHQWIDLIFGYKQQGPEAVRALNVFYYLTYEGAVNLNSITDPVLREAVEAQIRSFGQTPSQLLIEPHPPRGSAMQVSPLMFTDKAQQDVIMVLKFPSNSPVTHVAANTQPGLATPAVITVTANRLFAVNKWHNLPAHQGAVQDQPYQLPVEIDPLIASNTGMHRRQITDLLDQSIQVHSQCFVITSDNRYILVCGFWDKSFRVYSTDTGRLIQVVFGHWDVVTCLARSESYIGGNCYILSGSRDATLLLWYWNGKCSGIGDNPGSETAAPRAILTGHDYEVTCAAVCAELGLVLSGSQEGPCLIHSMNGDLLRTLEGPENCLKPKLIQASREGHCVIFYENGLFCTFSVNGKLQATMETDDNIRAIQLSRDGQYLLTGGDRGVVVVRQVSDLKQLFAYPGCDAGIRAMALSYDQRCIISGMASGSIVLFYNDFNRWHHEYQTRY
Chain of MLTK C22 (Q9NYL2) (Q9NYL2 whole entry, the tested form may be a part): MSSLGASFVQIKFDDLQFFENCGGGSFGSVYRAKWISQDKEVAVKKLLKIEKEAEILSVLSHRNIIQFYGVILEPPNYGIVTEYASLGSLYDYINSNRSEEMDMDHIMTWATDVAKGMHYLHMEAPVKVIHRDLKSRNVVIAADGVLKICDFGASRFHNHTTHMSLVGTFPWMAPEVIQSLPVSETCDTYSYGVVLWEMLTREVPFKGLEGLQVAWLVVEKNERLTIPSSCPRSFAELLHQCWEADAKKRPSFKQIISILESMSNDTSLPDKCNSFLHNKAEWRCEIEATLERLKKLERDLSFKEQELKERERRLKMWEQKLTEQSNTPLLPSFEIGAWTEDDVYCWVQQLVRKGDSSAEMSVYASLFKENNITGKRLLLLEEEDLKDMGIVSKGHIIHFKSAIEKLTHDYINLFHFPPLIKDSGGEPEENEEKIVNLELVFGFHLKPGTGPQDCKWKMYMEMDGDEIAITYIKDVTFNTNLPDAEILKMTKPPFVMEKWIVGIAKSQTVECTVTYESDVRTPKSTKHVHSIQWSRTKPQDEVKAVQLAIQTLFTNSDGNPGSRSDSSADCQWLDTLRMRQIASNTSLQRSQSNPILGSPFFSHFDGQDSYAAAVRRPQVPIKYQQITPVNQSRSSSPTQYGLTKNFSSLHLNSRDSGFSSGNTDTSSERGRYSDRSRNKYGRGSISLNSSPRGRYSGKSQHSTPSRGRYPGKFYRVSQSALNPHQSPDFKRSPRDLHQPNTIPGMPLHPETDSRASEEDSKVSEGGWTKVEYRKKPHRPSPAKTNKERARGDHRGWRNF

## O=C(CCl)N(Cc1ccc(F)cc1)C12CC3CC(CC(C3)C1)C2 [compound 34]
MLTK C22 (Q9NYL2); 500 μm, in-vitro_ramos_231
  isoTOP-ABPP reactivity ratio, Q9NYL2_C22: 0.8

## COc1ccc2c(c1)CCCN2C(=O)CCl [compound 2]
LRBA C1704 (P50851); ramos
  R value (DMSO/fragment): 3.4
NR3C1 C302 (P04150); 500 μM
  R value (DMSO/fragment): 2.3
IREB2 C137 (P48200); 500 μM, invitro, ramos
  R value (DMSO/fragment): 10.5
MLTK C22 (Q9NYL2)
  R value (DMSO/fragment): 20.0

## Cn1cc(S(=O)(=O)N2CCOCC2)cc1C(=O)NC(=O)CCl [compound 11]
LRBA C1704 (P50851); ramos
  isoTOP-ABPP ratio, P50851_C1704: 1.4
NR3C1 C302 (P04150); 500 μM, invitro, ramos
  isoTOP-ABPP ratio, P04150_C302: 1.5
IREB2 C137 (P48200); 500 μM, invitro, ramos
  isoTOP-ABPP ratio, P48200_C137: 3.7

## COc1ccccc1OCCNC(=O)CCl [compound 28]
MLTK C22 (Q9NYL2)
  isoTOP-ABPP ratio (reactivity profile), Q9NYL2_C22: 1.4

## C=CC(=O)N(Cc1cccnc1)c1ccc(Oc2ccccc2)c(C(F)(F)F)c1 [compound 15]
LRBA C1704 (P50851); 500 μm in-vitro ramos
  isoTOP-ABPP ratio (reactivity profile), P50851_C1704: 1.9
NR3C1 C302 (P04150); 500 μm in-vitro ramos
  isoTOP-ABPP ratio (reactivity profile), P04150_C302: 0.9
IREB2 C137 (P48200); 500 μm in-vitro ramos
  isoTOP-ABPP ratio (reactivity profile), P48200_C137: 2.0

## O=C(CCl)NCCc1c[nH]c2ccccc12 [compound 13]
LRBA C1704 (P50851); 231
  isoTOP-ABPP ratio, P50851_C1704: 0.7
LRBA C1704 (P50851); ramos
  isoTOP-ABPP ratio, P50851_C1704: 0.8
MLTK C22 (Q9NYL2)
  isoTOP-ABPP ratio Q9NYL2_C22: 5.2

## Cc1ccc(C=C(C#N)C(=O)NCCN2CCOCC2)cc1 [compound 41]
IREB2 C137 (P48200); 500 μm, in-vitro_ramos_231
  isoTOP-ABPP reactivity ratio, P48200_C137: 1.2
MLTK C22 (Q9NYL2); 500 μm, in-vitro_ramos_231
  isoTOP-ABPP reactivity ratio, Q9NYL2_C22: 1.5

## CC(Br)C(=O)Nc1cc(C(F)(F)F)cc(C(F)(F)F)c1 (centres unmarked) [compound 24]
LRBA C1704 (P50851); 500 μm in-vitro ramos
  isoTOP-ABPP ratio (reactivity profile), P50851_C1704: 1.3

## O=C(CCl)Nc1cc(C(F)(F)F)cc(C(F)(F)F)c1 [compound 3]
LRBA C1704 (P50851); ramos
  R value (DMSO/fragment): 3.6
NR3C1 C302 (P04150); 500 μM
  R value (DMSO/fragment): 7.6
MLTK C22 (Q9NYL2)
  R value (DMSO/fragment): 1.8

## CC(C)(C)c1cc(NC(=O)CCl)on1 [compound 32]
LRBA C1704 (P50851); 500 μm, in-vitro_ramos
  isoTOP-ABPP reactivity ratio, P50851_C1704: 2.0
MLTK C22 (Q9NYL2); 500 μm, in-vitro_ramos_231
  isoTOP-ABPP reactivity ratio, Q9NYL2_C22: 2.1

## COc1cc(NC(=O)CCl)cc(OC)c1 [compound 43]
NR3C1 C302 (P04150); in-vitro_ramos_231
  isoTOP-ABPP reactivity profile ratio, P04150_C302: 1.5
MLTK C22 (Q9NYL2); 500 μm, in-vitro_ramos_231
  isoTOP-ABPP reactivity profile ratio, Q9NYL2_C22: 2.9

## C=CC(=O)N(c1ccccc1)c1ccc(Br)cc1 [compound 5]
LRBA C1704 (P50851); ramos
  isoTOP-ABPP ratio, P50851_C1704: 3.6
MLTK C22 (Q9NYL2)
  isoTOP-ABPP ratio Q9NYL2_C22: 20.0

## O=C(CCl)Nc1ccc(-c2ccccc2)cc1 [compound 52]
LRBA C1704 (P50851); 500 μm, in-vitro_ramos
  isoTOP-ABPP reactivity profile ratio, P50851_C1704: 1.1
NR3C1 C302 (P04150); in-vitro_ramos
  isoTOP-ABPP reactivity profile ratio, P04150_C302: 1.8
IREB2 C137 (P48200); 500 μm, in-vitro_ramos
  isoTOP-ABPP reactivity profile ratio, P48200_C137: 1.3

## C=CC(=O)Nc1cc(F)c(N2CCN(C(=O)OC(C)(C)C)CC2)c(F)c1 [compound 38]
LRBA C1704 (P50851); 500 μm, in-vitro_ramos
  isoTOP-ABPP reactivity ratio, P50851_C1704: 2.5
MLTK C22 (Q9NYL2); 500 μm, in-vitro_ramos_231
  isoTOP-ABPP reactivity ratio, Q9NYL2_C22: 1.2

## C=CC(=O)N(Cc1cccnc1)c1cc(C(F)(F)F)cc(C(F)(F)F)c1 [compound 31]
LRBA C1704 (P50851); 500 μm, in-vitro_ramos
  isoTOP-ABPP reactivity ratio, P50851_C1704: 1.4

## CC(Cl)C(=O)Nc1cc(C(F)(F)F)cc(C(F)(F)F)c1 (centres unmarked) [compound 25]
LRBA C1704 (P50851); 500 μm in-vitro ramos_231
  isoTOP-ABPP ratio (reactivity profile), P50851_C1704: 0.8
MLTK C22 (Q9NYL2)
  isoTOP-ABPP ratio (reactivity profile), Q9NYL2_C22: 0.8
